Laboratory results: patent US20260297092A1, “PYRAZOLOPYRIMIDINE DERIVATIVES AS INHIBITORS OF NLRP3” (Takeda Pharmaceutical Company Limited, priority 2023, published 2026)
pIC50: −log10 of the molar value.

Key:
[1] = test system: TNF-α (NF-κB pathway, THP-1 cells); assay: TNF-α Assay (IC50); type: cell-based, human; conditions: Homo sapiens, 600 ng/mL LPS, 3 hours
Method: TNF-α Assay (Reported as IC50)
Monocytic THP-1 cells (ATCC: TIB-202) were maintained in accordance with the provider's instructions in RPMI media (Life Technologies, Cat #A10491-01); RPMI was supplemented with 10% heat inactivated fetal bovine serum (Hyclone Cat #SH30396.03). The cells were differentiated into macrophages by the addition of 25 ng/mL IFN-7 for 24 hours at 37° C./5% CO2. Media was exchanged with fresh media with no FBS. The cells were plated at 40,000 cells per well in 384-well flat-bottom cell culture plates (Costar 3764) containing compounds (added in 1:1000) in a 1:3.16 serial dilution series in DMSO and were incubated for 30 minutes at 37° C./5% CO2. The NF-κB pathway was activated with the addition of 600 ng/mL LPS and the cells were incubated for 3 hours at 37° C./5% CO2. At the end of the incubation period, supernatant ([…]) was removed, and TNF-alpha were monitored using an ELISA (Human TNF-α ELISA, R&D systems, Cat #DY210) according to the manufacturer's instructions. 100% inhibition is determined with positive control, TPCA-1.
The IC50 values in the TNF-α assay were calculated from a plot of percentage of inhibition versus the inhibitor concentration by a logistics curve fit according to: Y=[Bottom+(Top−Bottom)]/(1+10^[(Log IC50−X)·Hill Slope], where Y was the […] at the inhibitor concentration, X, “Bottom” was the lowest inhibition value, i.e., 0%, “Top” was the maximum inhibition value, i.e., 100%, and the “Hill Slope” described the slope of the sigmoidal curve between the “Bottom” and “Top” values. The curve fitting was conducted with internally developed software.

[2] = test system: NLRP3 inflammasome (IL-1β production in THP-1 cells); assay: IL-1β TR-FRET Assay (percentage of inhibition at 300 nM, 6 μM or 10 μM); type: cell-based, human; conditions: Homo sapiens, LPS priming, ATP activation; for inhibition at 0.3 µM: THP-1, 300 nM, read-out: IL-1β inhibitory rate at 300 nM (%); for inhibition at 6 µM: THP-1, 6 μM, read-out: IL-1β inhibitory rate at 6 μM (%)
Summary of the method: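 Percent inhibition of IL-1β used DMSO wells as 0% and 3 μM MCC-950 wells as full inhibition, with supernatant read by HTRF. Beforehand, IFN-γ-differentiated (25 ng/mL, 24 h), LPS-primed (50 ng/mL, 24 h) THP-1 cells received compound 30 min before inflammasome activation by 20 mM ATP for 2 h.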

SMILES	pIC50 [1]	inhibition at 0.3 µM [2] [%]	inhibition at 10 µM ([2]; THP-1, 10 μM, read-out: IL-1β inhibitory rate at 10 μM (%)) [%]	inhibition at 6 µM [2] [%]
Cc1cc(Cl)ccc1-n1cc2c(=O)[nH]c(C3CCCN(C)C3)nc2n1 (stereo not shown) [Example 102, 2-(4-chloro-2-methylphenyl)-6-(1-methylpiperidin-3-yl)-2,5-dihydro-4H-pyrazolo[3,4-d]pyrimidin-4-one]	< 4.52		97	
Cc1cc(C2CC2)cc(C(F)F)c1-n1cc2c(=O)[nH]c(C3COCCO3)nc2n1 (racemic) [Example 316, 2-[4-cyclopropyl-2-(difluoromethyl)-6-methylphenyl]-6-(1,4-dioxan-2-yl)-2,5-dihydro-4H-pyrazolo[3,4-d]pyrimidin-4-one]	< 4.52			104
Cc1cc(O)c(-n2cc3c(=O)[nH]c(-c4ccncn4)nc3n2)c(C)c1C [Example 77, 2-(6-hydroxy-2,3,4-trimethylphenyl)-6-(pyrimidin-4-yl)-2,5-dihydro-4H-pyrazolo[3,4-d]pyrimidin-4-one]	< 4.52	99		
Cc1cc(C2CC2)cc(C)c1-n1cc2c(=O)[nH]c(-c3ccncn3)nc2n1 [Example 171, 2-(4-cyclopropyl-2,6-dimethylphenyl)-6-(pyrimidin-4-yl)-2,5-dihydro-4H-pyrazolo[3,4-d]pyrimidin-4-one]	< 4.52	100		
CO[C@H]1COCC[C@@H]1c1nc2nn(-c3c(C)cc(C4CC4)cc3C)cc2c(=O)[nH]1 (racemic) [Example 311, racemic mixture of 1,5-anhydro-3-[2-(4-cyclopropyl-2,6-dimethylphenyl)-4-oxo-4,5-dihydro-2H-pyrazolo[3,4-d]pyrimidin-6-yl]-2,3-dideoxy-4-O-methyl-L-threo-pentitol and 1,5-anhydro-3-[2-(4-cyclopropyl-2,6-dimethylphenyl)-4-oxo-4,5-dihydro-2H-pyrazolo[3,4-d]pyrimidin-6-yl]-2,3-dideoxy-4-O-methyl-D-threo-pentitol]	< 4.52			102
Cc1ccc(-n2cc3c(=O)[nH]c(-c4ccncn4)nc3n2)c(C)c1 [Example 84, 2-(2,4-dimethylphenyl)-6-(pyrimidin-4-yl)-2,5-dihydro-4H-pyrazolo[3,4-d]pyrimidin-4-one]	< 4.52	97		
COCc1nc2nn(-c3c(C)cc(C)cc3O)cc2c(=O)n1C [Example 8, 2-(2-hydroxy-4,6-dimethylphenyl)-6-(methoxymethyl)-5-methyl-2,5-dihydro-4H-pyrazolo [3,4-d]pyrimidin-4-one]	< 4.52	92		
Cc1cc(C2CC2)cc(C)c1-n1cc2c(=O)[nH]c([C@@H]3CCOC3)nc2n1 [Example 201, 2-(4-cyclopropyl-2,6-dimethylphenyl)-6-(oxolan-3-yl)-2,5-dihydro-4H-pyrazolo [3,4-d]pyrimidin-4-one]		99		
Cc1cc(C2CC2)cc(C)c1-n1cc2c(=O)[nH]c(C3(C#N)CC3)nc2n1 [Example 318, 1-[2-(4-cyclopropyl-2,6-dimethylphenyl)-4-oxo-4,5-dihydro-2H-pyrazolo[3,4-d]pyrimidin-6-yl]cyclopropane-1-carbonitrile]				98
Cc1cc(C2CC2)cc(C)c1-n1cc2c(=O)[nH]c(C3(F)CCOCC3)nc2n1 [Example 238, 2-(4-cyclopropyl-2,6-dimethylphenyl)-6-(4-fluorooxan-4-yl)-2,5-dihydro-4H-pyrazolo[3,4-d]pyrimidin-4-one]				97
Cc1cc(C2CC2)cc(C)c1-n1cc2c(=O)[nH]c([C@]3(F)CCOC3)nc2n1 [Example 290, 2-(4-cyclopropyl-2,6-dimethylphenyl)-6-[(3S)-3-fluorooxolan-3-yl]-2,5-dihydro-4H-pyrazolo[3,4-d]pyrimidin-4-one or 2-(4-cyclopropyl-2,6-dimethylphenyl)-6-[(3R)-3-fluorooxolan-3-yl]-2,5-dihydro-4H-pyrazolo[3,4-d]pyrimidin-4-one]				99

More lines, main results first:

pIC50 [1]	SMILES	inhibition at 0.3 µM [2] [%]	inhibition at 10 µM ([2]; THP-1, 10 μM, read-out: IL-1β inhibitory rate at 10 μM (%)) [%]	inhibition at 6 µM [2] [%]
< 4.52	CCOc1nc2nn(-c3c(F)cc(OC)cc3CC(F)(F)F)cc2c(=O)[nH]1 [Example 162, 6-ethoxy-2-[2-fluoro-4-methoxy-6-(2,2,2-trifluoroethyl)phenyl]-2,5-dihydro-4H-pyrazolo[3,4-d]pyrimidin-4-one]	97		
< 4.52	CCOc1nc2nn(-c3c(Br)cc(C4CC4)cc3COC)cc2c(=O)[nH]1 [Example 155, 2-[2-bromo-4-cyclopropyl-6-(methoxymethyl)phenyl]-6-ethoxy-2,5-dihydro-4H-pyrazolo[3,4-d]pyrimidin-4-one]	99		
< 4.52	CCOc1nc2nn(-c3c(F)cc(C)cc3Br)cc2c(=O)[nH]1 [Example 57, 2-(2-bromo-6-fluoro-4-methylphenyl)-6-ethoxy-2,5-dihydro-4H-pyrazolo[3,4-d]pyrimidin-4-one]	99		
< 4.52	CO[C@@H](C)COc1nc2nn(-c3c(F)cc(C4CC4)cc3C(F)F)cc2c(=O)[nH]1 [Example 203, 2-[4-cyclopropyl-2-(difluoromethyl)-6-fluorophenyl]-6-[(2S)-2-methoxypropoxy]-2,5-dihydro-4H-pyrazolo[3,4-d]pyrimidin-4-one]	99		
< 4.52	Cc1cc(C)c(-n2cc3c(=O)[nH]c(-c4cc(C)ncn4)nc3n2)c(O)c1 [Example 58, 2-(2-hydroxy-4,6-dimethylphenyl)-6-(6-methylpyrimidin-4-yl)-2,5-dihydro-4H-pyrazolo[3,4-d]pyrimidin-4-one]	100		
< 4.52	CCOc1nc2nn(-c3c(C)cc(OC(F)F)cc3C(F)F)cc2c(=O)[nH]1 [Example 195, 2-[4-(difluoromethoxy)-2-(difluoromethyl)-6-methylphenyl]-6-ethoxy-2,5-dihydro-4H-pyrazolo[3,4-d]pyrimidin-4-one]	101		
< 4.52	COCc1nc2nn(-c3c(C)cc(C4CC4)cc3C)cc2c(=O)[nH]1 [Example 166, 2-(4-cyclopropyl-2,6-dimethylphenyl)-6-(methoxymethyl)-2,5-dihydro-4H-pyrazolo[3,4-d]pyrimidin-4-one]	103		
< 4.52	CCOc1nc2nn(-c3ccc(C(F)(F)F)cc3O)c(C)c2c(=O)[nH]1 [Example 59, 6-ethoxy-2-[2-hydroxy-4-(trifluoromethyl)phenyl]-3-methyl-2,5-dihydro-4H-pyrazolo[3,4-d]pyrimidin-4-one]	98		
< 4.52	CCOc1nc2nn(-c3c(F)cc(C)cc3C(F)F)cc2c(=O)[nH]1 [Example 63, 2-[2-(difluoromethyl)-6-fluoro-4-methylphenyl]-6-ethoxy-2,5-dihydro-4H-pyrazolo[3,4-d]pyrimidin-4-one]	100		
< 4.52	COCc1nc2nn(-c3c(C)ccc(C)c3O)cc2c(=O)[nH]1 [Example 53, 2-(2-hydroxy-3,6-dimethylphenyl)-6-(methoxymethyl)-2,5-dihydro-4H-pyrazolo[3,4-d]pyrimidin-4-one]	95		
< 4.52	COCCOc1nc2nn(-c3c(F)cc(C4CC4)cc3C(F)F)cc2c(=O)[nH]1 [Example 186, 2-[4-cyclopropyl-2-(difluoromethyl)-6-fluorophenyl]-6-(2-methoxyethoxy)-2,5-dihydro-4H-pyrazolo[3,4-d]pyrimidin-4-one]	100		
< 4.52	COCc1nc2nn(-c3c(C)cc(C4CC4)cc3C(F)F)cc2c(=O)[nH]1 [Example 321, 2-[4-cyclopropyl-2-(difluoromethyl)-6-methylphenyl]-6-(methoxymethyl)-2,5-dihydro-4H-pyrazolo[3,4-d]pyrimidin-4-one]			103
< 4.52	CCOc1nc2nn(-c3c(C)cc(Br)cc3C)cc2c(=O)[nH]1 [Example 131, 2-(4-bromo-2,6-dimethylphenyl)-6-ethoxy-2,5-dihydro-4H-pyrazolo[3,4-d]pyrimidin-4-one]	100		
< 4.52	COc1nc2nn(-c3c(C)cc(C4(F)CC4)cc3C)cc2c(=O)[nH]1 [Example 235, 2-[4-(1-fluorocyclopropyl)-2,6-dimethylphenyl]-6-methoxy-2,5-dihydro-4H-pyrazolo[3,4-d]pyrimidin-4-one]			105
